In PMC7395068, “The evolution of strategies to minimise the risk of human drug-induced liver injury (DILI) in drug discovery and development” (Archives of Toxicology, 2020):
Read-outs that look alike come from different tables or passages of the source.

How the values were obtained:
[1] = test system: hLiMTs; details: cited from earlier work; for hLiMTs ATP <100uM: In vitro Assay, ref Proctor 2017; for hLiMTs/100uM, Proctor (2017): ATP, IC50 threshold 100 µM, ref Proctor et al. 2017
[2] = plasma free fraction; cited from earlier work
[3] = test system: PHH; details: cited from earlier work; for PHH/100uM, Proctor (2017): 2D PHH, ATP, IC50 threshold 100 µM, ref Proctor et al. 2017; for PHH ATP <100uM: In vitro Assay, ref Proctor 2017
[4] = Plasma free fraction (fu) and unbound Cmax (Cmax,u); assay type: in vitro ADME, human; details: unbound plasma Cmax
[5] = test system: HepG2; parameters: method as in Albrecht 2019; details: In vitro Assay; ref Albrecht 2019; cited from earlier work
[6] = test system: hLiMTs; assay: Combined HCI (HCS) and cellular ATP 3D assay in hLiMTs; details: for AC50 / minimal effective concentration: Homo sapiens; for hLiMTs <25x Avg Cmax ATP / hLiMTs <100x Avg Cmaxu ATP: ATP endpoint; for hLiMTs <25x Avg Cmax ATP / hLiMTs <25x Avg Cmax HCS / hLiMTs <25x Avg Cmax All: cut-off <25x Avg Cmax; for hLiMTs <100x Avg Cmaxu ATP / hLiMTs <100x Avg Cmaxu HCS / hLiMTs <100x Avg Cmaxu All: cut-off <100x Avg Cmaxu; for hLiMTs <25x Avg Cmax HCS / hLiMTs <100x Avg Cmaxu HCS: HCS endpoints; for hLiMTs <25x Avg Cmax All: all endpoints (ATP and HCS); for hLiMTs Cmax max All / hLiMTs Cmax min All / hLiMTs <10 uM All / hLiMTs <100x Avg Cmaxu All: all endpoints; for hLiMTs Cmax max All: Cmax max used; for hLiMTs Cmax min All: Cmax min used; for hLiMTs <10 uM All: cut-off <10 uM
[7] = test system: HepG2 cells; details: cited from earlier work
[8] = test system: PHH spheroids; details: cited from earlier work
[9] = test system: HepaRG spheroids; assay: Combined HCI (HCS) and cellular ATP 3D assay in HepaRG spheroids; details: for HepaRG <25x Avg Cmax ATP / HepaRG <100x Avg Cmaxu ATP: ATP endpoint; for HepaRG <25x Avg Cmax ATP / HepaRG <25x Avg Cmax HCS / HepaRG <25x Avg Cmax All: cut-off <25x Avg Cmax; for HepaRG <100x Avg Cmaxu ATP / HepaRG <100x Avg Cmaxu HCS / HepaRG <100x Avg Cmaxu All: cut-off <100x Avg Cmaxu; for HepaRG <25x Avg Cmax HCS / HepaRG <100x Avg Cmaxu HCS: HCS endpoints; for HepaRG <25x Avg Cmax All: all endpoints (ATP and HCS); for HepaRG Cmax max All / HepaRG Cmax min All / HepaRG <10 uM All / HepaRG <100x Avg Cmaxu All: all endpoints; for HepaRG Cmax max All: Cmax max used; for HepaRG Cmax min All: Cmax min used; for HepaRG <10 uM All: cut-off <10 uM; for AC50 / minimal effective concentration: Homo sapiens; for HepaRG <25x Avg Cmax ATP / HepaRG <100x Avg Cmaxu ATP / HepaRG <25x Avg Cmax HCS / HepaRG <100x Avg Cmaxu HCS / HepaRG <25x Avg Cmax All / HepaRG Cmax max All / HepaRG Cmax min All / HepaRG <10 uM All / HepaRG <100x Avg Cmaxu All / AC50 / minimal effective concentration: HepaRG
[10] = test system: PHH; details: In vitro Assay; ref Albrecht 2019; cited from earlier work
[11] = cited from earlier work
[12] = read-out: Human plasma Cmax; total plasma Cmax.tot, median of 9 literature references; cited from earlier work
[13] = test system: THLE or HepG2 cells, isolated mitochondria, BSEP; details: cited from earlier work; for Partition Hybrid HRM Score / Ro2 Hybrid HRM Score: In vitro Assay, ref Aleo 2019; for Partition Hybrid HRM Score ≥4, Aleo (2019) / Partition Hybrid HRM Score ≥8, Aleo (2019) / Rule of Two hybrid HRM Score ≥3, Aleo (2019) / Rule of Two hybrid HRM Score ≥8, Aleo (2019): Modeled in vitro assays (cytotoxicity, mitochondrial dysfunction, BSEP), ref Aleo et al. 2019
[14] = cited from earlier work; remark: listed apart in the source
[15] = test system: THLE-Null and THLE-3A4 cells; details: In vitro Assay; ref Gustafsson 2014; cited from earlier work
[16] = test system: isolated mouse liver mitochondria; details: In vitro Assay; ref Porceddu 2012; cited from earlier work
[17] = test system: HepG2 cells; details: In vitro Assay; ref Persson 2013; cited from earlier work
[18] = test system: HepG2 cells, primary human hepatocytes; details: In vitro Assay; ref Garside 2014; cited from earlier work
[19] = Microtissue model structural based (HCI), combined HCS and ATP, MEC < 25 × Cmax.tot cut-off

CN(C)CCC(c1ccc(Cl)cc1)c1ccccn1 (stereo not drawn) [chlorpheniramine]
hLiMTs ATP <100uM [1]: +VE (IC50 threshold of 100 µM) | hLiMTs/100uM, Proctor (2017) [1]: +VE (IC50 threshold of 100 µM) | fu [2]: 0.277 | PHH/100uM, Proctor (2017) [3]: -VE | PHH ATP <100uM [3]: -VE | Human plasma Cmax,u [4]: 0.101 µM | Cytotoxicity HepG2 48 hrs [5]: -VE | AC50 ([6]; read-out: ATP endpoint AC50): 30.9 µM | minimal effective concentration ([6]; read-out: ATP endpoint MEC): 10.7 µM | AC50 ([6]; read-out: HCS endpoint AC50): 98.5 µM | minimal effective concentration ([6]; read-out: HCS endpoint MEC): 66.6 µM | DILI prediction hLiMTs (HCS-MEC) [6, 19]: -VE | hLiMTs <25x Avg Cmax ATP [6]: -ve | hLiMTs <100x Avg Cmaxu ATP [6]: -ve | hLiMTs <25x Avg Cmax HCS [6]: -ve | hLiMTs <100x Avg Cmaxu HCS [6]: -ve | hLiMTs <25x Avg Cmax All [6]: -ve | hLiMTs Cmax max All [6]: -ve | hLiMTs Cmax min All [6]: -ve | hLiMTs <10 uM All [6]: -ve | hLiMTs <100x Avg Cmaxu All [6]: -ve | Structural based (HCI) ([7]; In vitro Assay, ref O'Brien 2006): +VE | DILI in vitro assay prediction, O'Brien (2006) ([7]; Structural based (HCI), HepG2, ref O'Brien et al. 2006): -VE | hLiMTs ATP <20 x Cmax ([8]; In vitro Assay, ref Vorrink 2018): -VE | DILI in vitro assay prediction, Vorrink (2018) ([8]; PHH spheroids, ATP, 14 days, IC20 < 20 × Cmax.tot, ref Vorrink et al. 2018): -VE | HepaRG <25x Avg Cmax ATP [9]: -ve | HepaRG <100x Avg Cmaxu ATP [9]: -ve | HepaRG <25x Avg Cmax HCS [9]: -ve | HepaRG <100x Avg Cmaxu HCS [9]: -ve | HepaRG <25x Avg Cmax All [9]: -ve | HepaRG Cmax max All [9]: -ve | HepaRG Cmax min All [9]: -ve | HepaRG <10 uM All [9]: -ve | HepaRG <100x Avg Cmaxu All [9]: -ve | AC50 ([9]; read-out: ATP endpoint AC50): 129 µM | minimal effective concentration ([9]; read-out: ATP endpoint MEC): 120 µM | AC50 ([9]; read-out: HCS endpoint AC50): 119 µM | minimal effective concentration ([9]; read-out: HCS endpoint MEC): 14.3 µM | DILI prediction HepaRG spheroids (HCS-MEC) [9, 19]: -VE | Cytotoxicity PHH 48 hrs [10]: -VE | DILI severity category (Chen et al. [2016]) ([11]; LTKB DILIrank category, ref Chen et al. 2016): No | DILI severity category (Chen 2016) ([11]; human DILI classification, LTKB DILIrank, ref Chen et al. 2016): No | DILI severity category ([11]; human DILI severity, ref Chen et al.): No | DILI +VE (5-8), DILI -VE (-4) ([11]; ref Chen 2016): -VE | DILI severity category ([11]; ref Chen 2016): vNo-DILI-Concern | Cmax [12]: 0.366 µM | Partition Hybrid HRM Score [13]: -VE | Ro2 Hybrid HRM Score [13]: -VE | Partition Hybrid HRM Score ≥4, Aleo (2019) [13]: -VE | Partition Hybrid HRM Score ≥8, Aleo (2019) [13]: -VE | Rule of Two hybrid HRM Score ≥3, Aleo (2019) [13]: -VE | Rule of Two hybrid HRM Score ≥8, Aleo (2019) [13]: -VE | Assigned DILI category ([14]; Chen et al. 2016 or literature alignment, ref Chen et al. 2016): 1 | In vivo DILI ([14]; ref Albrecht 2019): -VE | In vivo DILI ([14]; ref Aleo 2019): -VE | In vivo DILI ([14]; ref O'Brien 2006): -VE | In vivo DILI ([14]; ref Proctor 2017): +VE | In vivo DILI ([14]; ref Vorrink 2018): -VE | In vivo DILI ([14]; ref Xu 2008): +VE

CCCC(CCC)C(=O)O [valproic acid]
hLiMTs ATP <100uM [1]: -VE | hLiMTs/100uM, Proctor (2017) [1]: -VE | fu [2]: 0.080 | PHH/100uM, Proctor (2017) [3]: -VE | PHH ATP <100uM [3]: -VE | Human plasma Cmax,u [4]: 55.474 µM | Cytotoxicity HepG2 48 hrs [5]: +VE | AC50 ([6]; read-out: ATP endpoint AC50): 7080 µM | minimal effective concentration ([6]; read-out: ATP endpoint MEC): 6220 µM | minimal effective concentration ([6]; read-out: HCS endpoint MEC): 1600 µM | hLiMTs <25x Avg Cmax ATP [6]: +ve | hLiMTs <100x Avg Cmaxu ATP [6]: -ve | hLiMTs <25x Avg Cmax HCS [6]: +ve | hLiMTs <100x Avg Cmaxu HCS [6]: +ve (<100x Avg Cmaxu) | hLiMTs <25x Avg Cmax All [6]: +ve | hLiMTs Cmax max All [6]: +ve | hLiMTs Cmax min All [6]: +ve | hLiMTs <10 uM All [6]: -ve | hLiMTs <100x Avg Cmaxu All [6]: +ve (<100x Avg Cmaxu) | HepaRG <25x Avg Cmax ATP [9]: +ve | HepaRG <100x Avg Cmaxu ATP [9]: +ve (<100x Avg Cmaxu) | HepaRG <25x Avg Cmax HCS [9]: +ve | HepaRG <100x Avg Cmaxu HCS [9]: +ve (<100x Avg Cmaxu) | HepaRG <25x Avg Cmax All [9]: +ve | HepaRG Cmax max All [9]: +ve | HepaRG Cmax min All [9]: +ve | HepaRG <10 uM All [9]: -ve | HepaRG <100x Avg Cmaxu All [9]: +ve (<100x Avg Cmaxu) | AC50 ([9]; read-out: ATP endpoint AC50): 41.3 µM | minimal effective concentration ([9]; read-out: ATP endpoint MEC): 12.3 µM | AC50 ([9]; read-out: HCS endpoint AC50): 148 µM | minimal effective concentration ([9]; read-out: HCS endpoint MEC): 45.6 µM | Cytotoxicity PHH 48 hrs [10]: +VE | THLE-Null [15]: -VE | in vitro data EC2<=1x Cmax [16]: +VE | in vitro data EC20<=2uM [16]: -VE | Cluser analysis [17]: -VE | Structural based (HCI) [17]: -VE | Cmax [12]: 693 µM | Partition Hybrid HRM Score [13]: +VE | Ro2 Hybrid HRM Score [13]: +VE | Partition Hybrid HRM Score ≥4, Aleo (2019) [13]: +VE (Partition Hybrid HRM Score ≥4) | Partition Hybrid HRM Score ≥8, Aleo (2019) [13]: +VE (Partition Hybrid HRM Score ≥8) | Rule of Two hybrid HRM Score ≥3, Aleo (2019) [13]: +VE (Rule of Two hybrid HRM Score ≥3) | Rule of Two hybrid HRM Score ≥8, Aleo (2019) [13]: -VE | Cluster 1-6 +VE Assay [18]: +VE
